{
  "source": "patent US20200017495A1",
  "about": "“NOVEL HETEROCYCLIC COMPOUNDS AND THEIR USE IN PREVENTING OR TREATING BACTERIAL INFECTIONS” (priority 2017, published 2020)",
  "experiment_in_all_cases": "MIC of compounds alone and combined with antibacterials, broth microdilution (CLSI)",
  "assay_type_in_all_cases": "cell-based",
  "key": {"[1]": {"test_system": "Enterobacter aerogenes (EAE) isolates", "conditions": "Klebsiella aerogenes", "experimental": "(§1) Method 2: MIC of Compounds Alone and Combined with Antibacterials Against Bacterial Isolates\n(§2) Compounds of the present invention were assessed against genotyped bacterial strains (Table 3, 4) alone or in combination with an antibacterial (Table 2). […] Log phase bacterial suspensions were adjusted to a final density of 5.10^5 CFU/mL in cation-adjusted Mueller-Hinton broth (ca-MHB; Becton-Dickinson and Company) and added to each well (98 μL). Microplates were incubated for 16-20 h at 35° C. in ambient air. The MIC of the compounds was defined as the lowest concentration of said compounds that prevented bacterial growth as read by visual inspection. The MIC of ATB at each compound concentration was defined as the lowest concentration of ATB that prevented bacterial growth as read by visual inspection."}, "[2]": {"test_system": "Morganella morganii (MMO) isolates", "conditions": "Morganella morganii", "experimental": "as §1, §2"}, "[3]": {"test_system": "Citrobacter freundii (CFR) isolates", "conditions": "Citrobacter freundii", "experimental": "as §1, §2"}, "[4]": {"test_system": "Klebsiella oxytoca (KOX) isolates", "conditions": "Klebsiella oxytoca", "experimental": "as §1, §2"}, "[5]": {"test_system": "Citrobacter koseri (CKR) isolates", "conditions": "Citrobacter koseri", "experimental": "as §1, §2"}, "[6]": {"test_system": "Serratia marcescens (SMA) isolates", "conditions": "Serratia marcescens", "experimental": "as §1, §2"}},
  "note": "Like-named read-outs stand apart in the source and are kept apart here.",
  "data": [
    {"smiles": "C=CC1=C(C(=O)O)N2C(=O)[C@@H](NC(=O)/C(=N\\O)c3csc(N)n3)[C@H]2SC1", "note": "[CDR, Cefdinir]", "values": [
      {"measurement": "MIC", "setting": "[1]", "result": "> 256", "unit": "µg/mL"},
      {"measurement": "MIC", "setting": "[1]; strain EAE 49469, genotype AmpC, read-out: MIC", "result": "> 128", "unit": "µg/mL"},
      {"measurement": "MIC", "setting": "[1]; strain EAE UFR202, genotype TEM-24, read-out: MIC", "result": 256, "unit": "µg/mL"},
      {"measurement": "MIC", "setting": "[1]; strain EAE UFR213, genotype TEM-24, read-out: MIC", "result": 256, "unit": "µg/mL"},
      {"measurement": "MIC", "setting": "[2]", "result": "> 256", "unit": "µg/mL"},
      {"measurement": "MIC", "setting": "[2]; strain MMO 200321, genotype TEM-1, CTX-M-15, OXA-1, read-out: MIC", "result": 256, "unit": "µg/mL"},
      {"measurement": "MIC", "setting": "[2]; strain MMO UFR144, genotype TEM-1, CTX-M-15, read-out: MIC", "result": 128, "unit": "µg/mL"},
      {"measurement": "MIC", "setting": "[2]; strain MMO UFR240, genotype CTX-M-9, read-out: MIC", "result": 64, "unit": "µg/mL"},
      {"measurement": "MIC", "setting": "[2]; strain MMO UFR241, genotype TEM-1, CTX-M-15, read-out: MIC", "result": 128, "unit": "µg/mL"},
      {"measurement": "MIC", "setting": "[2]; strain MMO UFR243, genotype DHA-1, read-out: MIC", "result": 64, "unit": "µg/mL"},
      {"measurement": "MIC", "setting": "[2]; strain MMO UFR244, genotype DHA-1, read-out: MIC", "result": 32, "unit": "µg/mL"},
      {"measurement": "MIC", "setting": "[2]; strain MMO UFR245, genotype DHA-1, read-out: MIC", "result": 64, "unit": "µg/mL"},
      {"measurement": "MIC", "setting": "[2]; strain MMO UFR246, genotype DHA-1, read-out: MIC", "result": 64, "unit": "µg/mL"},
      {"measurement": "MIC", "setting": "[2]; strain MMO UFR247, genotype DHA-1, read-out: MIC", "result": 128, "unit": "µg/mL"},
      {"measurement": "MIC", "setting": "[3]; strain CFR UFR10, genotype OXA-48", "result": "> 256", "unit": "µg/mL"},
      {"measurement": "MIC", "setting": "[3]; strain CFR UFR11, genotype TEM-1, OXA-1, OXA-48", "result": "> 256", "unit": "µg/mL"},
      {"measurement": "MIC", "setting": "[3]; strain CFR UFR83, genotype TEM-3, AmpC", "result": "> 256", "unit": "µg/mL"},
      {"measurement": "MIC", "setting": "[3]; strain CFR UFR146, genotype TEM-1, KPC-2, read-out: MIC", "result": 256, "unit": "µg/mL"},
      {"measurement": "MIC", "setting": "[3]; strain CFR UFR248, genotype CTX-M-15", "result": "> 256", "unit": "µg/mL"},
      {"measurement": "MIC", "setting": "[3]; strain CFR UFR249, genotype TEM-1, CTX-M-15", "result": "> 256", "unit": "µg/mL"},
      {"measurement": "MIC", "setting": "[3]; strain CFR UFR250, genotype TEM-1, SHV-28, CTX-M-15", "result": "> 256", "unit": "µg/mL"},
      {"measurement": "MIC", "setting": "[3]; strain CFR UFR253, genotype TEM-1, SHV-12, OXA-48", "result": "> 256", "unit": "µg/mL"},
      {"measurement": "MIC", "setting": "[3]; strain CFR UFR254, genotype VEB-1b, OXA-48, qnrA, read-out: MIC", "result": 256, "unit": "µg/mL"},
      {"measurement": "MIC", "setting": "[4]", "result": "> 256", "unit": "µg/mL"},
      {"measurement": "MIC", "setting": "[5]", "result": "> 256", "unit": "µg/mL"},
      {"measurement": "MIC", "setting": "[6]", "result": "> 256", "unit": "µg/mL"},
      {"measurement": "MIC", "setting": "[6]; strain SMA UFR134, genotype TEM-1, BES-1, read-out: MIC", "result": 256, "unit": "µg/mL"},
      {"measurement": "MIC", "setting": "[6]; strain SMA UFR137, genotype SME-1, read-out: MIC", "result": 4, "unit": "µg/mL"},
      {"measurement": "MIC", "setting": "[6]; strain SMA UFR138, genotype SME-1, read-out: MIC", "result": 8, "unit": "µg/mL"},
      {"measurement": "MIC", "setting": "[6]; strain SMA UFR139, genotype SME-2, read-out: MIC", "result": 64, "unit": "µg/mL"},
      {"measurement": "MIC", "setting": "[6]; strain SMA UFR239, genotype ESAC, read-out: MIC", "result": 128, "unit": "µg/mL"}
    ]}
  ]
}
